{
  "source": "paper PMC10762035",
  "about": "“Molecular basis of human trace amine-associated receptor 1 activation” (Nature Communications, 2024)",
  "assay_type_in_all_cases": "cell-based",
  "key": {"hTA1 C96S": {"molecular_target": "T1, hTA1 C96S (Homo sapiens, UniProt Q96RJ0, C96S)", "T1 construct": "expressed in transfected cells; host or cells: HEK293T", "T1 sequence (Q96RJ0 1-339 C96S)": "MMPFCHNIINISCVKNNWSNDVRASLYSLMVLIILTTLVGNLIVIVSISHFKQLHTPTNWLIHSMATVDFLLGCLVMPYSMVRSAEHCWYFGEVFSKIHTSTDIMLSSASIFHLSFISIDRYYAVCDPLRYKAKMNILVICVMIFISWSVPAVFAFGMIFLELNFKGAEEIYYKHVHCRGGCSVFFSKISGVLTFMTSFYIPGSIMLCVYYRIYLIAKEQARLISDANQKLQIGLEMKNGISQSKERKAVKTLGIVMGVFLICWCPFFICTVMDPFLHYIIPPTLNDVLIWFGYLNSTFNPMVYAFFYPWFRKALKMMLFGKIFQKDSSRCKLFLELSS", "assay": "GloSensor cAMP accumulation assay, C96S mutant", "conditions": "log[Compound]"}, "hTA1 T271N": {"molecular_target": "T2, hTA1 T271N (Homo sapiens, UniProt Q96RJ0, T271N)", "T2 construct": "expressed in transfected cells; host or cells: HEK293T", "T2 sequence (Q96RJ0 1-339 T271N)": "T1 sequence (Q96RJ0 1-339 C96S) with S96C, T271N", "assay": "GloSensor cAMP accumulation assay, T271N mutant", "conditions": "for Normalized Luminescence Counts for Concentration Response Curves: log[Agonist], single replicates"}, "hTA1 C88S": {"molecular_target": "T3, hTA1 C88S (Homo sapiens, UniProt Q96RJ0, C88S)", "T3 construct": "expressed in transfected cells; host or cells: HEK293T", "T3 sequence (Q96RJ0 1-339 C88S)": "T1 sequence (Q96RJ0 1-339 C96S) with C88S, S96C", "assay": "GloSensor cAMP accumulation assay, C88S mutant", "conditions": "C88S"}, "hTA1 F195T": {"molecular_target": "T4, hTA1 F195T (Homo sapiens, UniProt Q96RJ0, F195T)", "T4 construct": "expressed in transfected cells; host or cells: HEK293T", "T4 sequence (Q96RJ0 1-339 F195T)": "T1 sequence (Q96RJ0 1-339 C96S) with S96C, F195T", "assay": "GloSensor cAMP accumulation assay, F195T mutant;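 further: cells transiently co-expressing HA-FLAG-tagged hTA1 and the GloSensor cAMP biosensor, luminescence read 30 min after agonist addition at room temperature, concentration-response fitted by nonlinear regression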"}, "hTA1 I290N": {"molecular_target": "T5, hTA1 I290N (Homo sapiens, UniProt Q96RJ0, I290N)", "T5 construct": "expressed in transfected cells; host or cells: HEK293T", "T5 sequence (Q96RJ0 1-339 I290N)": "T1 sequence (Q96RJ0 1-339 C96S) with S96C, I290N", "assay": "GloSensor cAMP accumulation assay, I290N mutant;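 further: cells transiently co-expressing hTA1 and the GloSensor cAMP biosensor, luminescence read 30 min after compound addition at room temperature, efficacy scaled to the maximal β-PEA response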"}, "[1]": {"conditions": "hTA1 I290N mutant minus WT average"}},
  "note": "Changes are numbered by the printed parent chain. Several values for one entry are separate records, joined by “and”; a condition that tells them apart may be missing. Identical values can stand only once.",
  "data": [
    {"compound": "NCCc1ccccc1", "note": "[β-PEA, β-phenethylamine]", "values": [
      {"measurement": "Normalized Luminescence Counts", "setting": "hTA1 C96S; C96S, M = -5, single replicates (N=2)", "result": "35.6736 and 42.2638 and 54.1262 and 8.922 and 12.7948 and 20.5413"},
      {"measurement": "Normalized Luminescence Counts", "setting": "hTA1 C96S; C96S, M = -5.522, single replicates (N=2)", "result": "25.7883 and 20.5161 and 22.4932 and 16.6681 and -2.698 and 8.922"},
      {"measurement": "Normalized Luminescence Counts", "setting": "hTA1 C96S; C96S, M = -6, single replicates (N=2)", "result": "12.6079 and 10.6308 and 7.995 and -2.698 (2×) and 5.048"},
      {"measurement": "Normalized Luminescence Counts", "setting": "hTA1 C96S; C96S, M = -6.522, single replicates (N=2)", "result": "0.7455 (2×) and 3.382 and 1.175 and -6.571 (2×)"},
      {"measurement": "Normalized Luminescence Counts", "setting": "hTA1 C96S; C96S, M = -7, single replicates (N=2)", "result": "0.7455 and -1.232 and -0.5726 and -2.698 (2×) and -6.571"},
      {"measurement": "Normalized Luminescence Counts", "setting": "hTA1 C96S; C96S, M = -7.522, single replicates (N=2)", "result": "-0.5726 and -1.891 and 0.08646 and -4.6346 (2×) and -6.571"},
      {"measurement": "Normalized Luminescence Counts", "setting": "hTA1 C96S; C96S, M = -8, single replicates (N=2)", "result": "2.064 and 0.7455 and -0.5726 and 1.175 and 6.985 and 5.048"},
      {"measurement": "Normalized Luminescence Counts", "setting": "hTA1 C96S; C96S, M = -8.522, single replicates (N=2)", "result": "2.723 and -1.232 and -1.891 and 6.985 and 1.175 and 8.922"},
      {"measurement": "Normalized Luminescence Counts", "setting": "hTA1 C96S; C96S, M = -9, single replicates (N=2)", "result": "-0.5726 and 0.08646 and -1.232 and 10.8582 and 1.175 and -0.7614"},
      {"measurement": "Normalized Luminescence Counts", "setting": "hTA1 C96S; C96S, M = -9.522, single replicates (N=2)", "result": "2.064 and -3.209 and -1.232 and -2.698 (2×) and 3.112"},
      {"measurement": "Normalized Luminescence Counts", "setting": "hTA1 C96S; C96S, M = -10, single replicates (N=2)", "result": "0.08646 and -0.5726 and -1.232 and -8.508 and -2.698 and -0.7614"},
      {"measurement": "Normalized Luminescence Counts", "setting": "hTA1 C96S; C96S, M = -10.522, single replicates (N=2)", "result": "4.7 and -1.232 and -1.891 and -10.4444 and -0.7614 and -2.698"},
      {"measurement": "Normalized Luminescence Counts", "setting": "hTA1 C96S; C96S, M = -11, single replicates (N=2)", "result": "2.723 and -0.5726 and 0.7455 and -10.4444 and 3.112 and 1.175"},
      {"measurement": "Normalized Luminescence Counts", "setting": "hTA1 C96S; C96S, M = -11.522, single replicates (N=2)", "result": "0.08646 and 2.064 and -2.55 and -10.4444"},
      {"measurement": "Normalized Luminescence Counts", "setting": "hTA1 C96S; M = -11.522, single replicates, mutant block above C178S", "result": "-0.6791 and -0.9294 and -0.1556 and 1.551 and 0.7492 and 1.23"},
      {"measurement": "Normalized Luminescence Counts", "setting": "hTA1 C96S; M = -12, single replicates, mutant block above C178S", "result": "-0.6108 and -0.9294 and -0.5425 and 1.07 and 0.8561 and 1.283"},
      {"measurement": "Normalized Luminescence Counts", "setting": "hTA1 C96S; M = -12.522, single replicates, mutant block above C178S", "result": "-0.7929 and -0.6336 and -1.02 and 1.337 and 1.283 and 0.8561"},
      {"measurement": "pEC50 values, Mean", "setting": "hTA1 T271N; T271N mutant, Figure 5B, each row one independent experiment (3 replicates)", "result": "6.643 and 6.211"},
      {"measurement": "Emax values, Mean", "setting": "hTA1 T271N; T271N mutant, Figure 5B, β-PEA = 100, each row one independent experiment (3 replicates)", "result": 100},
      {"measurement": "Normalized Luminescence Counts for Concentration Response Curves", "setting": "hTA1 T271N; T271N, M -7", "result": "26.2249 and 22.04 and 25.7454 and 13.723 and 18.7522 and 17.914"},
      {"measurement": "Normalized Luminescence Counts for Concentration Response Curves", "setting": "hTA1 T271N; T271N, M -7.522", "result": "13.7138 and 6.913 and 9.921 and 7.175 and 4.66 and 5.236"},
      {"measurement": "Normalized Luminescence Counts for Concentration Response Curves", "setting": "hTA1 T271N; T271N, M -8", "result": "4.385 and 5.17 and 5.257 and 2.984 (2×) and 1.569"},
      {"measurement": "Normalized Luminescence Counts for Concentration Response Curves", "setting": "hTA1 T271N; T271N, M -8.522", "result": "2.467 and 1.9 and 1.508 and 0.2596 and -0.631 and 0.5215"},
      {"measurement": "Normalized Luminescence Counts for Concentration Response Curves", "setting": "hTA1 T271N; T271N, M -9", "result": "0.4181 and 0.5052 and 1.246 and -0.2643"},
      {"measurement": "Span ± SEM (Emax normalized to β-PEA)", "setting": "hTA1 T271N; T271N, n=2", "result": "100 ± 3.3"},
      {"measurement": "pEC50 ± SEM", "setting": "hTA1 T271N; T271N, n=2", "result": "6.43 ± 0.06"},
      {"measurement": "EC50", "setting": "hTA1 T271N; T271N, n=2, read-out: EC50", "result": 374, "unit": "nM"},
      {"measurement": "Emax values", "setting": "hTA1 C88S; Mean of fit per experiment", "result": 100},
      {"measurement": "pEC50 values", "setting": "hTA1 C88S; Mean of fit per experiment", "result": "7.013 and 7.137"},
      {"measurement": "Span ± SEM (Emax normalized to β-PEA)", "setting": "hTA1 C88S; n=2", "result": "100 ± 2.93"},
      {"measurement": "pEC50 ± SEM", "setting": "hTA1 C88S; n=2", "result": "7.08 ± 0.06"},
      {"measurement": "EC50", "setting": "hTA1 C88S; n=2, read-out: EC50", "result": 84.1, "unit": "nM"},
      {"measurement": "increase in potency vs wild type", "setting": "hTA1 F195T; F195T", "result": "~ 3.5 fold"},
      {"measurement": "ΔpEC50 values (each mutant value - WT average), Mean", "setting": "hTA1 F195T; F195T mutant minus WT average, Figure 5B", "result": "0.6087 and 0.4606"},
      {"measurement": "pEC50 values, Mean", "setting": "hTA1 F195T; F195T mutant, Figure 5B, each row one independent experiment (3 replicates)", "result": "7.7022 and 7.554"},
      {"measurement": "Emax values, Mean", "setting": "hTA1 F195T; F195T mutant, Figure 5B, β-PEA = 100, each row one independent experiment (3 replicates)", "result": 100},
      {"measurement": "Span ± SEM (Emax normalized to β-PEA)", "setting": "hTA1 F195T; F195T, n=2", "result": 100},
      {"measurement": "pEC50 ± SEM", "setting": "hTA1 F195T; F195T, n=2", "result": "7.63 ± 0.07"},
      {"measurement": "EC50", "setting": "hTA1 F195T; F195T, n=2, read-out: EC50", "result": 23.5, "unit": "nM"},
      {"measurement": "Span ± SEM (Emax normalized to β-PEA)", "setting": "hTA1 I290N; I290N, n=2", "result": "100 ± 2.5"},
      {"measurement": "pEC50 ± SEM", "setting": "hTA1 I290N; I290N, n=2", "result": "7.26 ± 0.06"},
      {"measurement": "EC50", "setting": "hTA1 I290N; I290N, n=2, read-out: EC50", "result": 54.7, "unit": "nM"},
      {"measurement": "cAMP accumulation response, single replicate values (source data, Supplementary Figure 5)", "setting": "hTA1 I290N; hTA1 I290N (N=2), log[Compound], M = -5", "result": "123.698 and 115.527 and 100.651 and 114.899"},
      {"measurement": "ΔEmax values (each mutant value - WT average), Mean", "setting": "hTA1 I290N; [1]", "result": 0},
      {"measurement": "ΔpEC50 values (each mutant value - WT average), Mean", "setting": "hTA1 I290N; [1]", "result": "0.1524 and 0.1839"},
      {"measurement": "pEC50 values, Mean", "setting": "hTA1 I290N; hTA1 I290N mutant, Figure 3B source data, each grid row a separate experiment, 3 replicates", "result": "7.2459 and 7.277"},
      {"measurement": "Emax values, Mean", "setting": "hTA1 I290N; hTA1 I290N mutant, β-PEA set to 100, each grid row a separate experiment, 3 replicates", "result": 100}
    ]}
  ]
}
